Data set [1] deals with B-cell lymphoma 6 protein (Homo sapiens, UniProt P41182). Nature of the data set: Binding affinity to fluorescent labeled recombinant BCL-6 BTB domain (unknown origin) assessed as dissociation constant incubated for 10 mins by MST analysis.
For data set [2], the target named is T1, Protein cereblon/B-cell lymphoma 6 protein (Homo sapiens, UniProt Q96SW2+P41182). The data set is described as follows: PROTAC activity at CRBN/BCL6 in BCL6-dependent human SU-DHL-4 cells assessed as induction of BCL6 degradation by measuring degradation rate at 1 uM incubated for 48 hrs by Western blot analysis relative to control. The format is cell-based. (In general: Immunoblotting shows a protein as a band on a membrane.)
T1 sequence (Q96SW2 whole entry, looked up, other chains not shown): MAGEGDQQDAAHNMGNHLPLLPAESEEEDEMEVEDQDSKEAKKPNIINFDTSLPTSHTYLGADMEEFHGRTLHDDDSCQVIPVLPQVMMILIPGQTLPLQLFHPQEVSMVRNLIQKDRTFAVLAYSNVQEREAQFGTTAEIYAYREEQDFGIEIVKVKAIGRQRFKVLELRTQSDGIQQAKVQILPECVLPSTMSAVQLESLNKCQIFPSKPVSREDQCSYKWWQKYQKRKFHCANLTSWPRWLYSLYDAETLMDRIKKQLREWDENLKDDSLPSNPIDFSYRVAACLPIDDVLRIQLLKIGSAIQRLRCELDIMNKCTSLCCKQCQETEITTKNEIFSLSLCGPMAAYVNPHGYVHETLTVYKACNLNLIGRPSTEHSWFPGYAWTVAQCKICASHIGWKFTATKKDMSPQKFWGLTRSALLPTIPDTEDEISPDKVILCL

Data set [3] addresses T1, Protein cereblon/B-cell lymphoma 6 protein. Nature of the data set: PROTAC activity at CRBN/BCL6 in BCL6-dependent human SU-DHL-4 cells assessed as induction of BCL6 degradation by measuring degradation rate at 10 uM incubated for 48 hrs by Western blot analysis relative to control. The format is cell-based.
In data set [4] the test system is SUD4. Nature of the data set: Antiproliferative activity against BCL6-dependent human SU-DHL-4 cells assessed as inhibition of cell growth at 1 uM measured after 6 days by MTT assay relative to control. The format is functional. Conditions: SU-DHL-4, 144 h, time 6 day. On the technique in general: Formazan colour is commonly taken as a measure of viable cells.
Data set [5] concerns SUD4. The data set is described as follows: Antiproliferative activity against BCL6-dependent human SU-DHL-4 cells assessed as inhibition of cell growth at 10 uM measured after 6 days by MTT assay relative to control. The format is functional. Conditions: SU-DHL-4, 144 h, time 6 day.
The subject of data set [6] is SUD4. The data set is described as follows: Upregulation of p21 protein level in human SU-DHL-4 cells at 5 uM preincubated for 48 hrs followed by compound elution and measured after 72 hrs by Western blot analysis. The format is functional, cell-based.
In data set [7] the test system is SUD4. Nature of the data set: Upregulation of p27 protein level in human SU-DHL-4 cells at 5 uM preincubated for 48 hrs followed by compound elution and measured after 72 hrs by Western blot analysis. The format is functional, cell-based.
Data set [8] deals with DOHH-2. Nature of the data set: Antiproliferative activity against BCL6-dependent human DOHH-2 cells assessed as inhibition in cell growth measured after 6 days by MTS assay. Conditions: DOHH-2, 144 h.
Data set [9] deals with SUD4. The data set is described as follows: Antiproliferative activity against BCL6-dependent human SU-DHL-4 cells assessed as inhibition in cell growth measured after 6 days by MTT assay. Particulars: SU-DHL-4, 144 h.
For data set [10], the system named is SU-DHL-6. Nature of the data set: Antiproliferative activity against BCL6-dependent human SU-DHL-6 cells assessed as inhibition in cell growth measured after 6 days by MTT assay. Conditions: SU-DHL-6, 144 h.
For data set [11], the system named is OCI-Ly1. The data set is described as follows: Antiproliferative activity against BCL6-dependent human OCI-Ly1 cells assessed as inhibition in cell growth measured after 6 days by MTT assay. Conditions: OCI-Ly1, 144 h.
Data set [12] in a line: Cytotoxicity against HEK293T cells assessed as inhibition in cell growth measured after 6 days by MTT assay. Conditions: human, HEK293T cells. The format is toxicity, cell-based, HEK-293T.
Data set [13] can be described thus: Cytotoxicity against human WI-38 VA13 cells assessed as inhibition in cell growth measured after 6 days by MTT assay. Conditions: WI-38 VA13 cells. The format is toxicity, cell-based.
Data set [14] has as its target T1, Protein cereblon/B-cell lymphoma 6 protein. Nature of the data set: PROTAC activity at CRBN/BCL6 in human SU-DHL-4 cells assessed as induction of BCL6 degradation incubated for 48 hrs by Western blot analysis. The format is cell-based.
Data set [15] has the same target. Nature of the data set: PROTAC activity at CRBN/BCL6 in human SU-DHL-4 cells assessed as induction of BCL6 degradation by measuring maximal efficacy incubated for 48 hrs by Western blot analysis relative to control. The format is cell-based.
The target is the same in data set [16]. The data set is described as follows: PROTAC activity at CRBN/BCL6 in human DOHH-2 cells assessed as induction of BCL6 degradation incubated for 48 hrs by Western blot analysis. The format is cell-based.
Data set [17] has the same target. Nature of the data set: PROTAC activity at CRBN/BCL6 in human DOHH-2 cells assessed as induction of BCL6 degradation by measuring maximal efficacy incubated for 48 hrs by Western blot analysis relative to control. The format is cell-based.

Active and inactive are the calls of the source. The rule behind the calls is not given here. Some results are limits rather than exact numbers.

Regarding `CC[C@H](C)[C@H](NC(=O)[C@H](CO)NC(=O)[C@H](CCCNC(=N)N)NC(=O)CNC(=O)[C@H](C)NC(=O)[C@H](CCC(=O)O)NC(=O)[C@H](CCCCN)NC(=O)[C@@H](NC(=O)[C@@H](NC(=O)[C@H](C)NC(=O)[C@@H](NC(=O)[C@@H](N)CC(C)C)C(C)C)[C@@H](C)O)C(C)C)C(=O)N[C@@H](Cc1cnc[nH]1)C(=O)N[C@@H](CCC(=O)O)C(=O)N[C@H](C(=O)N1CCC[C@H]1C(=O)N[C@@H](CCCNC(=N)N)C(=O)O)[C@@H](C)CC`, the Kd in data set [1] is 30 µM.
As for `COc1cc(Nc2nc(N3CCN(C(=O)CCCCNc4cccc5c4C(=O)N(C4CCC(=O)NC4=O)C5=O)CC3)ncc2F)ccc1NC(=O)c1ccc(C2=CCCC2)s1` (configuration not stated), the Activity in data set [2] turned out to be 0.1%; in data set [3] it was 31.7%.
Take `COc1cc(Nc2nc(N3CCN(C(=O)CCOCC#Cc4cccc5c4CN(C4CCC(=O)NC4=O)C5=O)CC3)ncc2F)ccc1NC(=O)c1ccc(C2=CCCC2)s1` (configuration not stated): the Activity in [2] turned out to be 27.4%; in data set [3], 73.2%. The inhibition at 1 µM in data set [4] worked out at 5.7%. Also, the inhibition at 10 µM in [5] was determined as 98%.
As for `COc1cc(Nc2nc(N3CCN(CCCCNc4cccc5c4C(=O)N(C4CCC(=O)NC4=O)C5=O)CC3)ncc2F)ccc1NC(=O)c1ccc(C2=CCCC2)s1` (configuration not stated), the values for the Activity in [2] and in [3] were 40.6% and 36.3%, respectively.
On to `COc1cc(Nc2nc(N3CCN(CCCCCNc4cccc5c4C(=O)N(C4CCC(=O)NC4=O)C5=O)CC3)ncc2F)ccc1NC(=O)c1ccc(C2=CCCC2)s1` (configuration not stated), for which the figures for the Activity in [2] and in data set [3] were 58.4% and 64%, respectively. The inhibition at 1 µM in [4] was found to be 58.7%. Besides, the inhibition at 10 µM in data set [5] stood at 70.1%.
`COc1cc(Nc2nc(N3CCN(CCOCCOCCNc4cccc5c4C(=O)N(C4CCC(=O)NC4=O)C5=O)CC3)ncc2F)ccc1NC(=O)c1ccc(C2=CCCC2)s1` (configuration not stated): the Activity in [2] came out at 35.6%; in [3] it was 38.3%.
In the case of `COc1cc(Nc2nc(N3CCN(C(=O)CCCCCCNc4cccc5c4C(=O)N(C4CCC(=O)NC4=O)C5=O)CC3)ncc2F)ccc1NC(=O)c1ccc(C2=CCCC2)s1` (configuration not stated), the Activity in data set [2] turned out to be 22.7%; in data set [3] it was 1.4%.
With `COc1cc(Nc2nc(N3CCN(C(=O)CCOCCOCCNc4cccc5c4C(=O)N(C4CCC(=O)NC4=O)C5=O)CC3)ncc2F)ccc1NC(=O)c1ccc(C2=CCCC2)s1` (configuration not stated), the Activity was 28.2% in data set [2] and 48.1% in [3].
For `COc1cc(Nc2nc(N3CCN(CCOCCNc4ccc5c(c4)C(=O)C(C4CCC(=O)NC4=O)C5=O)CC3)ncc2F)ccc1NC(=O)c1ccc(C2=CCCC2)s1` (configuration not stated), the Activity in [2] was 5.2%; in data set [3] it was 21.6%.
In the case of `COc1cc(Nc2nc(N3CCN(C(=O)CCOCCNc4cccc5c4CC(C4CCC(=O)NC4=O)C5=O)CC3)ncc2F)ccc1NC(=O)c1ccc(C2=CCCC2)s1` (configuration not stated), the Activity in data set [2] worked out at 11.1%; in data set [3], 37%.
Consider `COc1cc(Nc2nc(N3CCN(CCCCCCNc4cccc5c4C(=O)N(C4CCC(=O)NC4=O)C5=O)CC3)ncc2F)ccc1NC(=O)c1ccc(C2=CCCC2)s1` (configuration not stated), for which the Activity was determined as 42.9% in [2] and 55.8% in [3].
For the compound `COc1cc(Nc2nc(N3CCN(CCOCCOc4cccc5c4C(=O)C(C4CCC(=O)NC4=O)C5=O)CC3)ncc2F)ccc1NC(=O)c1ccc(C2=CCCC2)s1` (configuration not stated), the values for the Activity in data set [2] and in data set [3] were 13.5% and 26.3%, respectively.
Take `COc1cc(Nc2nc(N3CCN(C(=O)CCOCCOCCOCCOCCNc4cccc5c4C(=O)N(C4CCC(=O)NC4=O)C5=O)CC3)ncc2F)ccc1NC(=O)c1ccc(C2=CCCC2)s1` (configuration not stated): the Activity in data set [2] was found to be 12.2%.
`COc1cc(Nc2nc(N3CCN(C(=O)CCOCCOCCOCCNc4cccc5c4C(=O)N(C4CCC(=O)NC4=O)C5=O)CC3)ncc2F)ccc1NC(=O)c1ccc(C2=CCCC2)s1` (configuration not stated): the Activity in data set [2] stood at 34.7%; in [3], 41.2%.
For the compound `COc1cc(Nc2nc(N3C[C@@H](C)N[C@@H](C)C3)ncc2F)ccc1NC(=O)c1ccc(C2=CCCC2)s1`, the result in [6] and in [7] was inactive.
In the case of `COc1cc(Nc2nc(N3CCN(C(=O)CCOCCNc4cc5c(cc4F)C(=O)C(C4CCC(=O)NC4=O)C5=O)CC3)ncc2F)ccc1NC(=O)c1ccc(C2=CCCC2)s1` (configuration not stated), the Activity in data set [2] and in data set [3] was 0% throughout.
Take `COc1cc(Nc2nc(N3CCN(CCOCCNc4cccc5c4C(=O)N(C4CCC(=O)N(C)C4=O)C5=O)CC3)ncc2F)ccc1NC(=O)c1ccc(C2=CCCC2)s1` (configuration not stated): the Activity turned out to be 11.9% in [2] and 20.7% in data set [3]. In addition, the IC50 in data set [8], in data set [9], in data set [10] and in data set [11] was more than 10 µM throughout. In addition, the concentration for half-maximal inhibition (IC50) at 6 days in data set [12] and in [13] was more than 10 µM throughout. For the same compound, the DC50 in [14] and in data set [16] was more than 10 µM each time. Besides, the Emax in data set [15] is 29.4%; in data set [17] it was 11.6%.
With `COc1cc(Nc2nc(N3CCN(C(=O)CCOCCNc4ccc5c(c4)C(=O)C(C4CCC(=O)NC4=O)C5=O)CC3)ncc2F)ccc1NC(=O)c1ccc(C2=CCCC2)s1` (configuration not stated), the Activity worked out at 36.6% in data set [2] and 34% in [3].
In the case of `COc1cc(Nc2nc(N3CCN(C(=O)CC4CCN(c5cccc6c5C(=O)N(C5CCC(=O)NC5=O)C6=O)CC4)CC3)ncc2F)ccc1NC(=O)c1ccc(C2=CCCC2)s1` (configuration not stated), the Activity in data set [2] worked out at 7.1%; in data set [3], 2.7%.
For the compound `COc1cc(Nc2nc(N3CCN(C(=O)CCCCCNc4cccc5c4C(=O)N(C4CCC(=O)NC4=O)C5=O)CC3)ncc2F)ccc1NC(=O)c1ccc(C2=CCCC2)s1` (configuration not stated), the Activity in [2] came out at 38%; in data set [3], 54.1%. Moreover, in data set [4], the inhibition at 1 µM is 31%. Moreover, the inhibition at 10 µM in data set [5] is 41.3%.
As to `COc1cc(Nc2nc(N3CCN(C(=O)CCOCCNc4cccc5c4C(=O)N(C4CCC(=O)NC4=O)C5=O)CC3)ncc2F)ccc1NC(=O)c1ccc(C2=CCCC2)s1` (configuration not stated), the Activity in [2] is 55.7%; in data set [3], 46.3%. The inhibition at 1 µM in [4] turned out to be 47%. Further, the inhibition at 10 µM in [5] was 72.9%.
Take `COc1cc(Nc2nc(N3CCN(C(=O)CCC4CCN(c5cccc6c5C(=O)N(C5CCC(=O)NC5=O)C6=O)CC4)CC3)ncc2F)ccc1NC(=O)c1ccc(C2=CCCC2)s1` (configuration not stated): the Activity in data set [2] is 23.1%; in [3] it was 24.1%.
For `COc1cc(Nc2nc(N3CCN(CCOCCNc4cccc5c4CC(C4CCC(=O)NC4=O)C5=O)CC3)ncc2F)ccc1NC(=O)c1ccc(C2=CCCC2)s1` (configuration not stated), the Activity in data set [2] worked out at 15.7%; in [3], 37.1%.

One may read the Kd as the constant that tells how readily two partners part at equilibrium. Usually inhibition stands for the change of the read-out against control, counted positive when it falls. The IC50 is the concentration that inhibits the measured activity by half. In general, DC50 refers to the concentration at which degradation of the target reaches its halfway point. Usually Emax stands for the size of the effect at its maximum, as opposed to the concentration needed.

The record behind these values is ChEMBL document CHEMBL5614419, “Discovery of novel BCL6-Targeting PROTACs with effective antitumor activities against DLBCL in vitro and in vivo” (Eur J Med Chem, 2024).
